Experimental data reported in patent US20050026133A1, “Cryopreservation medium for primate embryo stem cells and cryopreservation method” (ASAHI TECHNO GLASS CORPORATION, priority 2002, published 2005).

What was measured:
[1] = test system: Cynomolgus monkey ES cells; test: Post-thaw ES cell colony formation, proliferation to subculturable stage, staining with Vector Red alkaline phosphatase substrate; type: cell-based
Procedure: After completion of the culture, the cells in each Petri dish were fixed with paraformaldehyde and ethanol and stained with Vector Red alkaline phosphatase substrate (Vector Labs).
After completion of the culture, the cells in each Petri dish were fixed with paraformaldehyde and ethanol and stained with vector Red alkaline phosphatase substrate (Vector Labs). […] Similar staining of the feeder cells gave no stained colonies (FIG. 11).
(§1) After 2, 4, 6 and 8 days, ES cell proliferation was assessed by alkaline phosphatase assay as described in Example 1. After 8 days of culture, the cells on each Petri dish was dissociated by tripsinization and counted. Colonies of 1 mm or larger formed on the Petri dishes for the respective concentrations were visually counted.

chicken lung cells = conditions: DMSO or glycerin concentrations from 15 to 20%; cited from earlier work
[2] = test system: Cynomolgus monkey ES cells; test: Cell count per Petri dish of post-thaw ES cell culture after trypsinization; type: cell-based
Procedure: After 2, 4, 6 and 7 days, ES cell proliferation was assessed by alkaline phosphatase assay as described in Example 1. After 7 days of culture, the cells on each Petri dish was dissociated by tripsinization and counted.
as §1
After 2, 4, 6 and 8 days, ES cell proliferation was assessed by alkaline phosphatase assay as described in Example 1. After 8 days of culture, the cells on each Petri dish was dissociated by tripsinization and counted.
After 2, 4 and 6 days of culture, ES cell proliferation was assessed by alkaline phosphatase assay as described in Example 1. After 6 days of culture, the cells on each Petri dish was dissociated by tripsinization and counted.

[3] = test system: Cynomolgus monkey ES cells; test: Alkaline phosphatase activity (ES cell marker) of post-thaw ES cells in culture, fluorometry with 4-methylumbelliferyl phosphate; type: cell-based; conditions: for alkaline phosphatase activity of post-thaw ES cells (successful cryopreservation): 8 days of culture
Procedure: Cynomolgus monkey ES cells were subcultured for 33 passages and dissociated into cell suspension from three 90-mm Petri dishes, and the cell suspension was centrifuged at 1,000 rpm for 5 minutes. The supernatant was removed to obtain a cell precipitate. The cell precipitate was resuspended in 1 ml of a cryopreservation medium containing 20% (V/V) [=22% (W/V)] of DMSO, 40% (V/V) of a serum replacement containing albumin, insulin and transferrin (Knockout Serum Replacement; Invitrogen) [hereinafter referred to as serum replacement (A)] and 40% (V/V) of DMEM:Ham F12=1:1 medium [hereinafter referred to as medium (A)] supplemented with 3 g/l of glucose, 0.5 g/l of CaCl2 0.15 g/l of MgSO4. The cell suspension was transferred to a serum tube, refrigerated to −80° C. at a rate of about 1° C./min in Mr. Frosty is (Nalgen) and then stored in a liquid nitrogen container for about 6 days. The cells were thawed, plated in 60-mm Petri dishes in duplicate and cultured in the medium described in Suemori et al. (2001 Dev. Dyn. Oct; 222(2):273-9). ES cell proliferation was investigated by following the time course of the activity of alkaline phosphatase, which is a marker of ES cells. After 3, 5 and 7 days, the medium was removed from the dishes by aspiration, and the cells were washed with 1 ml of 30 mM Hepes buffer containing 0.1 mg/l of CaCl2 and 0.1 mg/l of MgSO4(7H2O) and treated with 1 ml of 0.2 mM 4-methylumbelliferyl phosphate solution in the same buffer in an incubator at 37° C. for 1 hour. 0.8 ml portions of the reaction mixture were transferred to a 24-well microplate and analyzed by fluorometry at Ex355/Em460. Fluorescence per 1 ml was calculated and plotted. As a control, the alkaline phosphatase activity of the same feeder cells as used during subcultures of ES cells was measured.

[4] = test system: embryonic stem cells and embryonic carcinoma cells; conditions: DMSO concentration of above 1% (W/V); cited from earlier work
[5] = test system: Cynomolgus monkey ES cells; test: Differentiation potency of cryopreserved ES cells: teratoma formation after intraperitoneal injection into SCID mice; type: in vivo; conditions: Example 3; cells cryopreserved in 20% (V/V) [=22% (W/V)] DMSO, 40% serum replacement (A), 40% medium (A); 10 passages after thawing; 5×10^6 cells i.p. in SCID mice, about 6 weeks
Procedure: Cynomolgus monkey ES cells subcultured for 35 passages were harvested from three 90-mm Petri dishes and treated by a method similar to that employed in Example 1 to give a cell precipitate. The cell precipitate was resuspended in 1 ml of a cryopreservation medium consisting of 20% (V/V) [=22% (W/V)] of DMSO, 40% (V/V) of serum replacement (A), 40% (V/V) of medium (A). The cell suspension was transferred to a serum tube, refrigerated to −80° C. at a rate of about 1° C./min in Mr. Frosty (Nalgen) and stored in a liquid nitrogen container for 5 day. The cells were thawed and continuously subcultured in duplicate in 35-mm Petri dishes in the medium described in Suemori et al. (2001 Dev. Dyn. Oct;222(2);273-9). Differentiation potency was assessed after 10 passages. The cells were dissociated from the Petri dishes, and 5×10^6 cells were suspended in 0.5 ml of a phosphate buffer and intraperitoneally injected into SCID mice. The mice were fed for about 6 weeks, and teratomas were isolated from the abdomen.

OCC(O)CO [glycerin]
formation of ES cell colonies (1 mm or larger, visually counted) ([1]; Example 5, glycerin 10% (V/V) [=12.6% (W/V)] or above, 8 day culture): formation of ES cell colonies was confirmed
viability of chicken lung cells (chicken lung cells): did not give high viabilities
cell count per Petri dish in the 8 day culture ([2]; Example 5, glycerin 10% (V/V) [=12.6% (W/V)] and 20% (V/V) [=25.2% (W/V)]): remarkably great
alkaline phosphatase activity of post-thaw ES cells (successful cryopreservation) ([3]; Example 5, glycerin 10, 20 or 30% (V/V) [12.6, 25.2, 37.8% (W/V)], 20% serum replacement (A), balance medium (A)): increase in alkaline phosphatase activity after 8 days of culture
alkaline phosphatase activity of post-thaw ES cells (successful cryopreservation) ([3]; Example 5 comparative, glycerin 5% (V/V) [=6.3% (W/V)]): all the glycerin concentrations but 5% (V/V)

C[S+](C)[O-] [DMSO, dimethyl sulfoxide]
time in culture at which cells begin to differentiate [4]: 4 days
time after thawing until the cells could be subcultured ([1]; Example 1, 20% (V/V) DMSO, 40% serum replacement (A), 40% medium (A)): 1 week
colonies stained with Vector Red alkaline phosphatase substrate ([1]; Example 1, 20% (V/V) DMSO, after completion of the culture): numerous successfully stained colonies
ES cell proliferation and differentiated colonies after post-thaw passage ([1]; Example 1, 20% (V/V) DMSO, three-fold dilution followed by 3 days of subculture): successful proliferation of ES cells was observed without formation of differentiated colonies
ES cell proliferation and differentiated colonies after 7 days of prolonged culture ([1]; Example 2, 20% (V/V) DMSO): successful proliferation of ES cells was observed without formation of differentiated colonies
time after thawing until the cultures were able to be subcultured ([1]; Example 2, 20% (V/V) DMSO): 5 days
colonies stained with Vector Red alkaline phosphatase substrate ([1]; Example 2, 20% (V/V) DMSO, 7 days after thawing): numerous successfully stained colonies
ES cell proliferation after 7 days of prolonged culture ([1]; Example 2 comparative, 10% (V/V) DMSO): proliferation was recognized to a certain degree, though far below that of the cells in the illustrative experiment
reaching the subculturable stage after thawing ([1]; Example 2 comparative, 10% (V/V) DMSO, 5 days): could not reach the stage at which they were able to be subcultured after 5 days
colonies stained with Vector Red alkaline phosphatase substrate ([1]; Example 2 comparative, 10% (V/V) DMSO, 7 days after thawing): a few successfully stained colonies were observed
viability of chicken lung cells (chicken lung cells): did not give high viabilities
cell count per Petri dish in the 7 day culture versus comparative experiment (10% or 50% (V/V) DMSO) ([2]; Example 4, DMSO 15% (V/V) [=16.5% (W/V)] and 20% (V/V) [=22% (W/V)]): remarkably greater
cell count per Petri dish after 8 days of culture versus comparative experiment (10% (V/V) DMSO) ([2]; Example 6, 20% (V/V) DMSO, storage cell densities 1.0, 2.0, 4.0×10^7 cells/2 ml): greater than that in the comparative experiment
cryopreservation success by cell count per Petri dish after 7 days of culture ([2]; Example 7, 20% (V/V) DMSO with 10, 40 or 80% (V/V) serum replacement (A) or fetal bovine serum): Successful cryopreservation was confirmed at any supplement concentrations
cell count per Petri dish after 6 days of culture, 20% (V/V) DMSO relative to 10% (V/V) DMSO ([2]; Example 8, 20% serum replacement (A), 2.2×10^7 cells/2 ml, stored 1 day): 6 times
alkaline phosphatase activity of post-thaw ES cells versus feeder cells ([3]; Example 1, cryopreservation medium with 20% (V/V) [=22% (W/V)] DMSO, 40% serum replacement (A), 40% medium (A), stored about 6 days, culture 3, 5, 7 days): significantly higher alkaline phosphatase activity than the feeder cells
alkaline phosphatase activity of post-thaw ES cells versus feeder cells ([3]; Example 2, 20% (V/V) [=22% (W/V)] DMSO, 40% serum replacement (A), 40% medium (A), stored 1 day, culture 2, 4, 6, 7 days): significantly higher alkaline phosphatase activity than the feeder cells
alkaline phosphatase activity of post-thaw ES cells versus feeder cells ([3]; Example 2 comparative, 10% (V/V) DMSO, 45% serum replacement (A), 45% medium (A), after 7 days): slightly exceeded the feeder cells in alkaline phosphatase activity
time course of alkaline phosphatase activity of post-thaw ES cells ([3]; Example 4, DMSO 12, 15, 20 or 30% (V/V) [13.2, 16.5, 22, 33% (W/V)], equal serum replacement (A) and medium (A), 2, 4, 6, 7 days): time-dependent increase in alkaline phosphatase activity
rate of increase of alkaline phosphatase activity versus comparative experiment (10% (V/V) DMSO) ([3]; Example 6, 20% (V/V) DMSO, storage cell densities 1.0, 2.0, 4.0×10^7 cells/2 ml, stored 18 days): alkaline phosphatase activity increased faster at any cell densities than in the comparative experiment
alkaline phosphatase activity of post-thaw ES cells ([3]; Example 7, 20% (V/V) DMSO with 10, 40 or 80% (V/V) serum replacement (A) or fetal bovine serum, 2, 4, 6, 7 days): alkaline phosphatase activity increased
rate of increase of alkaline phosphatase activity versus comparative experiment (10% (V/V) DMSO) ([3]; Example 8, 20% (V/V) [=22% (W/V)] DMSO, 20% serum replacement (A), 60% medium (A), 2, 4, 6 days): increased significantly faster
tissues found in teratomas (retention of pluripotency) [5]: formation of nerves, muscles and cartilage
